Like-named read-outs stand apart in the source and are kept apart here.

Common to all, as to type: biochemical
One test deals with T1, ABHD6 (Mus musculus, UniProt Q8R2Y0).
T1 construct: Proteomes (mouse brain membrane fraction or cell lysates); from tissue; host or cells: mouse brain membrane fraction (or unspecified cell lysates)
T1 sequence (Q8R2Y0 1-336): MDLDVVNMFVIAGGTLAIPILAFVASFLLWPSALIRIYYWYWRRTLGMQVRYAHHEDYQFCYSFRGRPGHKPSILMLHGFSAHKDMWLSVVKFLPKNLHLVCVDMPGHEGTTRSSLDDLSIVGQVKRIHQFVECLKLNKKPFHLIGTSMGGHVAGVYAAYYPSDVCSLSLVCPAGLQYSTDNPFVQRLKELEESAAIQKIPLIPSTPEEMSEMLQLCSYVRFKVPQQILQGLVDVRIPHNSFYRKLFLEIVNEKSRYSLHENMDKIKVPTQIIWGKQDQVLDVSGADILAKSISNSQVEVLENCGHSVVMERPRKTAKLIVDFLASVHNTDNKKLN
As to the kind of experiment: In vitro competitive activity-based protein profiling (mouse), ABHD6. Particulars: for inhibition at 1 µM: read-out: % Inhibition at 1 μM ABHD6; for IC50: mouse brain membrane fraction or cell lysates, 30 min preincubation at 37° C, FP-Rh probe. As for the experimental part:
(§1) In Vitro Competitive Activity-Based Protein Profiling (Mouse).
(§2) Proteomes (mouse brain membrane fraction or cell lysates) (50 μL, 1.0 mg/mL total protein concentration) were preincubated with varying concentrations of inhibitors at 37° C. After 30 min, FP-Rh (1.0 μL, 50 μM in DMSO) was added and the mixture was incubated for another 30 min at 37° C. Reactions were quenched with SDS loading buffer (50 μL-4×) and run on SDS-PAGE.

The target in a further test is T2, MAGL (Mus musculus, UniProt O35678).
T2 construct: Proteomes (mouse brain membrane fraction or cell lysates); from tissue; host or cells: mouse brain membrane fraction (or unspecified cell lysates)
T2 sequence (O35678 1-303): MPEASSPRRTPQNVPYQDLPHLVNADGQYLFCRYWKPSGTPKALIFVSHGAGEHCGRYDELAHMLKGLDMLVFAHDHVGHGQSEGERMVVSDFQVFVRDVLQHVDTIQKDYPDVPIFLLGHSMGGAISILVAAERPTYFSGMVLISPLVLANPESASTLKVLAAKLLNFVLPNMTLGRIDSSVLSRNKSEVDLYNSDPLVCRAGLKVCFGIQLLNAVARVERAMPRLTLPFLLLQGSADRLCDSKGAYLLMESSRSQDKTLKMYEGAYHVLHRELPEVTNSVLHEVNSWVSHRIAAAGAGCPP
As to the kind of experiment: In vitro competitive activity-based protein profiling (mouse), MAGL. Conditions: for inhibition at 1 µM: read-out: % Inhibition at 1 μM MAGL; for IC50: mouse brain membrane fraction or cell lysates, 30 min preincubation at 37° C, FP-Rh probe. As for the experimental part:
as §1, §2

The target in another test is T3, FAAH (Mus musculus, UniProt O08914).
T3 construct: Proteomes (mouse brain membrane fraction or cell lysates); from tissue; host or cells: mouse brain membrane fraction (or unspecified cell lysates)
T3 sequence (O08914 1-579): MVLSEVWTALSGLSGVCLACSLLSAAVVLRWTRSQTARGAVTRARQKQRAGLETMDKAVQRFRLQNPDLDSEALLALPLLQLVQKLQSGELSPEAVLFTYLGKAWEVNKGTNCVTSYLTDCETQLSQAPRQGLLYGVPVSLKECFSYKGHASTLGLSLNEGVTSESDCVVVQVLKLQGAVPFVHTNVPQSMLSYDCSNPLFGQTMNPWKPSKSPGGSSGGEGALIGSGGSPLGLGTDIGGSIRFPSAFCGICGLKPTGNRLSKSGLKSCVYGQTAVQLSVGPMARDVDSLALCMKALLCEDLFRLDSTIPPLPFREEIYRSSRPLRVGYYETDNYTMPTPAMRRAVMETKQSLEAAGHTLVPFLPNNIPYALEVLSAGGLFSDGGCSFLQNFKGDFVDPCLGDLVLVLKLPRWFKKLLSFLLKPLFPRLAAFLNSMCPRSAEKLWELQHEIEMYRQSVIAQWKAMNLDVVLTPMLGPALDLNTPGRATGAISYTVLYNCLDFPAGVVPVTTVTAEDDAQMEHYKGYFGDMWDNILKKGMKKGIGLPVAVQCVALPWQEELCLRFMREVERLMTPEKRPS
Kind of test: In vitro competitive activity-based protein profiling (mouse), FAAH. Conditions: for inhibition at 1 µM: mouse proteome, in vitro; for IC50: mouse brain membrane fraction or cell lysates, 30 min preincubation at 37° C, FP-Rh probe. As for the experimental part: as §1
Proteomes (mouse brain membrane fraction or cell lysates) (50 μL, 1.0 mg/mL total protein concentration) were preincubated with varying concentrations of inhibitors at 37° C. After 30 min, FP-Rh (1.0 μL, 50 μM in DMSO) was added and the mixture was incubated for another 30 min at 37° C. Reactions were quenched with SDS loading buffer (50 μL-4×) and run on SDS-PAGE. Following gel imaging, serine hydrolase activity was determined by measuring fluorescent intensity of gel bands corresponding to MAGL, ABHD6 and FAAH using ImageJ 1.43u software.

On to `CS(=O)(=O)N[C@@H]1CCN(c2cccc(C(F)(F)F)c2CN2CCN(C(=O)OC(C(F)(F)F)C(F)(F)F)CC2)C1` [Example 47, 1,1,1,3,3,3-hexafluoropropan-2-yl (R)-4-(2-(3-(methylsulfonamido)pyrrolidin-1-yl)-6-(trifluoromethyl)benzyl)piperazine-1-carboxylate], for which the inhibition at 1 µM is less than 25% at ABHD6 (1 μM, mouse proteome, in vitro); more than 75% on MAGL (1 μM, mouse proteome, in vitro); less than 25% at FAAH.
With `CS(=O)(=O)N[C@H]1CCN(c2cccc(C(F)(F)F)c2CN2CCN(C(=O)OC(C(F)(F)F)C(F)(F)F)CC2)C1` [Example 48, 1,1,1,3,3,3-hexafluoropropan-2-yl (S)-4-(2-(3-(methylsulfonamido)pyrrolidin-1-yl)-6-(trifluoromethyl)benzyl)piperazine-1-carboxylate], the inhibition at 1 µM at ABHD6 (1 μM, mouse proteome, in vitro) is less than 25%; at MAGL (1 μM, mouse proteome, in vitro), 25 to 75%; on FAAH it was less than 25%.
Turning to `O=C(OC(C(F)(F)F)C(F)(F)F)N1CCN(Cc2c(N3C4CCC3COC4)cccc2C(F)(F)F)CC1` [Example 49, 1,1,1,3,3,3-hexafluoropropan-2-yl 4-(2-(3-oxa-8-azabicyclo[3.2.1]octan-8-yl)-6-(trifluoromethyl)benzyl)piperazine-1-carboxylate], the inhibition at 1 µM on ABHD6 was less than 25%; at MAGL, 25 to 75%; at FAAH it was less than 25%.
Take `O=C(OC(C(F)(F)F)C(F)(F)F)N1CCN(Cc2c(N3CC4CCC(C3)O4)cccc2C(F)(F)F)CC1` [Example 50, 1,1,1,3,3,3-hexafluoropropan-2-yl 4-(2-(8-oxa-3-azabicyclo[3.2.1]octan-3-yl)-6-(trifluoromethyl)benzyl)piperazine-1-carboxylate]: the inhibition at 1 µM was less than 25% on ABHD6 (1 μM, mouse proteome, in vitro); less than 25% at MAGL (1 μM, mouse proteome, in vitro); less than 25% at FAAH.
In the case of `Cc1c(CN2CCN(C(=O)OC(C(F)(F)F)C(F)(F)F)CC2)cccc1N1CCC(NS(C)(=O)=O)CC1` [Example 52, 1,1,1,3,3,3-hexafluoropropan-2-yl 4-(2-methyl-3-(4-(methylsulfonamido)piperidin-1-yl)benzyl)piperazine-1-carboxylate], the inhibition at 1 µM at ABHD6 (1 μM, mouse proteome, in vitro) is more than 75%; on MAGL (1 μM, mouse proteome, in vitro), more than 75%; at FAAH, less than 25%. Besides, the results for the IC50 on ABHD6, on MAGL and at FAAH were 100 to 1000 nM, less than 100 nM and more than 1000 nM, respectively.
Turning to `O=C(O)C1CCN(c2cc(Cl)ccc2CN2CCN(C(=O)OC(C(F)(F)F)C(F)(F)F)CC2)CC1` [Example 62, 1-(5-chloro-2-((4-(((1,1,1,3,3,3-hexafluoropropan-2-yl)oxy)carbonyl)piperazin-1-yl)methyl)phenyl)piperidine-4-carboxylic acid], the inhibition at 1 µM was less than 25% on ABHD6 (1 μM, mouse proteome, in vitro); more than 75% at MAGL (1 μM, mouse proteome, in vitro); less than 25% at FAAH. The IC50 is more than 1000 nM at ABHD6, 100 to 1000 nM at MAGL and more than 1000 nM on FAAH.
`O=C(O)C1CCN(c2cc(C(F)(F)F)ccc2CN2CCN(C(=O)OC(C(F)(F)F)C(F)(F)F)CC2)CC1` [Example 63, 1-(2-((4-(((1,1,1,3,3,3-hexafluoropropan-2-yl)oxy)carbonyl)piperazin-1-yl)methyl)-5-(trifluoromethyl)phenyl)piperidine-4-carboxylic acid]: the inhibition at 1 µM was more than 75% at ABHD6 (1 μM, mouse proteome, in vitro); more than 75% on MAGL (1 μM, mouse proteome, in vitro); less than 25% on FAAH. Further, the IC50 on ABHD6 is 100 to 1000 nM; at MAGL, less than 100 nM; at FAAH, more than 1000 nM.
Consider `O=C(OC(C(F)(F)F)C(F)(F)F)N1CCN(Cc2ccc(Cl)cc2N2CC3CN(C4CC4)CC3C2)CC1` (stereo not drawn) [Example 64, 1,1,1,3,3,3-hexafluoropropan-2-yl 4-(4-chloro-2-(5-cyclopropylhexahydropyrrolo[3,4-c]pyrrol-2(1H)-yl)benzyl)piperazine-1-carboxylate], for which the inhibition at 1 µM is less than 25% on ABHD6 (1 μM, mouse proteome, in vitro); more than 75% on MAGL (1 μM, mouse proteome, in vitro); less than 25% at FAAH. The IC50 on ABHD6 is more than 1000 nM; on MAGL it was 100 to 1000 nM; on FAAH it was more than 1000 nM.
Regarding `O=C(OC(C(F)(F)F)C(F)(F)F)N1CCN(Cc2ccc(Cl)cc2N2CCC3(CCCN3C3CC3)CC2)CC1` [Example 66, 1,1,1,3,3,3-hexafluoropropan-2-yl 4-(4-chloro-2-(1-cyclopropyl-1,8-diazaspiro[4.5]decan-8-yl)benzyl)piperazine-1-carboxylate], the inhibition at 1 µM on ABHD6 (1 μM, mouse proteome, in vitro) was 25 to 75%; on MAGL (1 μM, mouse proteome, in vitro), more than 75%; on FAAH it was less than 25%. Also, the half-maximal inhibitory concentration (IC50) at ABHD6 was more than 1000 nM; at MAGL, 100 to 1000 nM; on FAAH it was more than 1000 nM.
`O=C(OC(C(F)(F)F)C(F)(F)F)N1CCN(Cc2ccc(C(F)(F)F)cc2N2CCC3(CCCN3C3CC3)CC2)CC1` [Example 67, 1,1,1,3,3,3-hexafluoropropan-2-yl 4-(2-(1-cyclopropyl-1,8-diazaspiro[4.5]decan-8-yl)-4-(trifluoromethyl)benzyl)piperazine-1-carboxylate]: the inhibition at 1 µM on ABHD6 (1 μM, mouse proteome, in vitro) was less than 25%; at MAGL (1 μM, mouse proteome, in vitro) it was more than 75%; at FAAH, less than 25%. In addition, the IC50 at ABHD6 is more than 1000 nM; at MAGL it was 100 to 1000 nM; on FAAH it was more than 1000 nM.
With `O=C(OC(C(F)(F)F)C(F)(F)F)N1CCN(Cc2ccc(C(F)(F)F)cc2N2CCC(C(=O)N3CCCC3)CC2)CC1` [Example 68, 1,1,1,3,3,3-hexafluoropropan-2-yl 4-(2-(4-(pyrrolidine-1-carbonyl)piperidin-1-yl)-4-(trifluoromethyl)benzyl)piperazine-1-carboxylate], the inhibition at 1 µM on ABHD6 (1 μM, mouse proteome, in vitro) was less than 25%; on MAGL (1 μM, mouse proteome, in vitro) it was more than 75%; at FAAH, less than 25%. The IC50 on ABHD6 was more than 1000 nM; at MAGL it was 100 to 1000 nM; at FAAH it was more than 1000 nM.
`CCOC(=O)C1CCCN1c1cc(C(F)(F)F)ccc1CN1CCN(C(=O)OC(C(F)(F)F)C(F)(F)F)CC1` (stereo not drawn) [Example 70, 1,1,1,3,3,3-hexafluoropropan-2-yl 4-(2-(2-(ethoxycarbonyl)pyrrolidin-1-yl)-4-(trifluoromethyl)benzyl)piperazine-1-carboxylate]: the inhibition at 1 µM on ABHD6 (1 μM, mouse proteome, in vitro) is more than 75%; on MAGL (1 μM, mouse proteome, in vitro), more than 75%; at FAAH it was less than 25%. For the same molecule, the IC50 at ABHD6 was 100 to 1000 nM; on MAGL it was less than 100 nM; on FAAH, more than 1000 nM.
Turning to `O=C(O)C1CCN(c2cc(C(F)(F)F)ccc2CN2CCN(C(=O)OC(C(F)(F)F)C(F)(F)F)CC2)C1` (stereo not drawn) [Example 72, 1-(2-((4-(((1,1,1,3,3,3-hexafluoropropan-2-yl)oxy)carbonyl)piperazin-1-yl)methyl)-5-(trifluoromethyl)phenyl)pyrrolidine-3-carboxylic acid], the inhibition at 1 µM at ABHD6 (1 μM, mouse proteome, in vitro) is more than 75%; at MAGL (1 μM, mouse proteome, in vitro), more than 75%; on FAAH it was less than 25%. Besides, the values for the IC50 on ABHD6, on MAGL and at FAAH were 100 to 1000 nM, less than 100 nM and more than 1000 nM, respectively.

The values above are taken from patent publication US9771341B2, “Piperazine carbamates and methods of making and using same” (Abide Therapeutics, Inc., priority 2015, dated 2017).
